# Measured values reported in ChEMBL document CHEMBL1153384, “Synthesis, antimalarial activity, and preclinical pharmacology of a novel series of 4'-fluoro and 4'-chloro analogues of amodiaquine. Identification of a suitable "back-up" compound for N-tert-butyl isoquine” (J Med Chem, 2009).
# pIC50: −log10 of the molar value.
# How the values were obtained:
# Liver [1] = assay: Biodistribution in cannulated Wistar rat liver assessed as [3H]labeled drug level at 54 umol/kg, iv after 5 hrs; assay type: ADME, organism-based; details: in vivo
# Lung = assay: Biodistribution in Wistar rat lung assessed as [3H]labeled drug level at 54 umol/kg, iv after 24 hrs; assay type: ADME, organism-based; details: in vivo
# [2] = Elimination half life in mouse at 10 mg/kg, po administered as single dose; assay type: ADME, organism-based; parameters: dose 10 mg/kg, route oral; details: in vivo, read-out: beta t1/2 (converted)
# Plasmodium berghei = assay: Antimalarial activity as reduced parasitaemia against Plasmodium berghei ANKA infected CD1 mice (Mus musculus) perorally dosed daily over 4 days; assay type: functional; details: po, 96 h
# Cytochrome P450 2C9 = Cytochrome P450 2C9 (Homo sapiens, UniProt P11712); assay: Inhibition of human CYP2C9; assay type: ADME
# Cytochrome P450 2C9, sequence (P11712 whole entry): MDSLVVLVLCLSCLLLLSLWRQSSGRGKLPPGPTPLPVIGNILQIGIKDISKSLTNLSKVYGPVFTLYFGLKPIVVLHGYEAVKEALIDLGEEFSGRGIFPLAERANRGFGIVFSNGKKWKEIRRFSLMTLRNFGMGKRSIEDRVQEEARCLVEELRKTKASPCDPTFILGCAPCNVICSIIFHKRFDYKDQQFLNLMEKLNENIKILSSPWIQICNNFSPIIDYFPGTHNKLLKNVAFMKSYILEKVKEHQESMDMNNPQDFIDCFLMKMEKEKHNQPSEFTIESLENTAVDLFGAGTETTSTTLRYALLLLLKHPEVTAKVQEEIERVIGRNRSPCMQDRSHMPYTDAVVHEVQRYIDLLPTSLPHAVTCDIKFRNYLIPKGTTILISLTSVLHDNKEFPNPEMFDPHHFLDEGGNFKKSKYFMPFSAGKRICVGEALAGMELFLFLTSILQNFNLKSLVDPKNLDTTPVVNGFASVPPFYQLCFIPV
# Heme = assay: Binding affinity to heme assessed as binding constant for stepwise binding of 2 equivalent of drug to 1 molecule of heme in presence of 40% DMSO by UV-visible spectroscopy
# Rattus norvegicus [3] = assay: Drug elimination in Wistar rat assessed as [3H]labeled drug level at 54 umol/kg, iv after 24 hrs; assay type: ADME, organism-based; details: in vivo
# Liver [4] = assay: Biodistribution in Wistar rat liver assessed as [3H]labeled drug level at 54 umol/kg, iv after 24 hrs; assay type: ADME, organism-based; details: in vivo
# [5] = Biodistribution in cannulated Wistar rat bile assessed as [3H]labeled drug level at 54 umol/kg, iv after 5 hrs; assay type: ADME, organism-based; details: in vivo
# [6] = Oral bioavailability in rat; assay type: ADME, organism-based; details: in vivo
# Plasmodium falciparum [7] = assay: Antimalarial activity against chloroquine-resistant Plasmodium falciparum K1
# [8] = Toxicity in po dosed mouse assessed as drug level causing no observed adverse effects administered as single dose; assay type: organism-based; details: in vivo, read-out: Activity
# [9] = Biodistribution in cannulated Wistar rat urine assessed as [3H]labeled drug level at 54 umol/kg, iv after 5 hrs; assay type: ADME, organism-based; details: in vivo
# Rattus norvegicus [10] = assay: Biodistribution in Wistar rat assessed as remaining [3H]labeled drug level at 54 umol/kg, iv after 48 hrs; assay type: ADME, organism-based; details: in vivo
# Plasmodium falciparum [11] = assay: Antimalarial activity against chloroquine-sensitive Plasmodium falciparum HB3; assay type: functional, organism-based
# Cytochrome P450 2D6 = Cytochrome P450 2D6 (Homo sapiens, UniProt P10635); assay: Inhibition of human CYP2D6; assay type: ADME
# Cytochrome P450 2D6, sequence (P10635 whole entry): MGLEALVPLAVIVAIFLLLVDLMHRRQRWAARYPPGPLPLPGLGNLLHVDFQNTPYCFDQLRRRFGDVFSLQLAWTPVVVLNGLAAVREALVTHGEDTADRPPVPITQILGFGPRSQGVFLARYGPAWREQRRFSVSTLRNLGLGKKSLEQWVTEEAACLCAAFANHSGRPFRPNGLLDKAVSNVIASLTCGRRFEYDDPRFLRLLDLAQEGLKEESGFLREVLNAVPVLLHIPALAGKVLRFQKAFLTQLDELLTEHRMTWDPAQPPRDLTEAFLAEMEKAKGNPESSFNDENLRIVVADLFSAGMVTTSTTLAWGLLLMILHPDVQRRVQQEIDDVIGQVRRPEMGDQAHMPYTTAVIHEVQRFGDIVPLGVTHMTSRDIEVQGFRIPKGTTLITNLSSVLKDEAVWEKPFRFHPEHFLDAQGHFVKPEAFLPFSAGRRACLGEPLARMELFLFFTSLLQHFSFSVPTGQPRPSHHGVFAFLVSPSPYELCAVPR
smiles,measurement,setting,value
CC(C)(C)NCc1cc(Nc2ccnc3cc(Cl)ccc23)ccc1F,Drug uptake,Liver [1],17.49 %ID
same,Drug uptake,Lung,1.17 %ID
same,half-life,[2],7 h
same,ED50,Plasmodium berghei,5.3 mg/kg
same,ED90,Plasmodium berghei,12.4 mg/kg
same,pIC50,Cytochrome P450 2C9,4.28
same,log Ks,Heme,5.45
same,Activity,Rattus norvegicus [3],51.36%
same,Drug uptake,Liver [4],6.57 %ID
same,Activity,[5],9.16 %ID
same,bioavailability,[6],100%
same,pIC50,Plasmodium falciparum [7],7.66
same,NOAEL,[8],300 mg/kg
same,Activity,[9],8.06 %ID
same,Activity,Rattus norvegicus [10],72.79%
same,pIC50,Plasmodium falciparum [11],7.84
same,pIC50,Cytochrome P450 2D6,6.52
